# Results from US12194071B2, “Methods and compositions with purified Bombyx mori cocoon silk peptide fiber and refined Buglossoides arvensis seed oil providing anti-inflammatory effects and neuroprotection for disease states” (Brain Health Holding LLC, priority 2019, dated 2025).
# Assays:
# TNF-α = experiment: LPS-induced TNF-α production in RAW264.7 cells (ELISA); type: cell-based, mouse; settings: for reduction in LPS-induced TNF-α production, RAW264.7 cells: omega-3/omega-6 study with DHA EE, EPA EE, SDA EE (toxic amount of SDA EE); for reduction in LPS-induced TNF-α production: study challenging RAW264.7 cells in 3 batches
# Protocol: RAW264.7 cells were seeded in 96 well plates at a density of 20,000 cells/well. On day 2, the cells were serum starved for 24 h in DMEM. Then, the cells were pre-treated with 60 μg/ml of Peptylin® alone or in combination with 50 μM or 100 μM NeurXcel® EE diluted in DMEM. Appropriate vehicle controls have been included, i.e. 0.5% EtOH+1.2% H2O. On day 4 the cells were LPS-induced (500 ng/ml) for 1.5 h and the supernatants were collected. A WST-8 assay was performed to measure cell viability and the supernatants were used for an ELISA assay to measure TNF-α levels. All the experiments were carried out with 9 replicates (for control and LPS treated cells) or 24 replicates (for cells treated with NX and/or PT). A t-test was used to compare the media of TNF-α levels between the treatment of NX alone and in combination with PT.
# 3.4 Experimental procedure RAW264.7 cells were seeded in 96-well plates at a density of 20,000 cells/well in DMEM+10% FBS. The next day, the cells were washed once with DPBS and serum starved for 24 h in 150 μL of DMEM. Then, the cells were treated with 150 μL of 60 μg/ml of Peptylin® and 100 or 50 μM NeurXcel® EE that were used either alone or in combination. Appropriate vehicle controls were also included in the assay, i.e. 0.5% ethanol+1.2% H2O. After 24 h, the cells were incubated for 1.5 h with 10 μL of LPS (7500 ng/ml) to reach a final concentration of 500 ng/ml. After the incubation, the supernatants were collected and a WST-8 assay was carried out. CCK-8 reagent (WST-8) was diluted 1:10 in DMEM media and 100 μL were added to each well and the plate was incubated at 37° C. After 15 minutes the absorbance was measured at 450 nm using the Synergy II microplate reader. WST-8 is bioreduced by cellular dehydrogenases to an orange formazan product that is soluble in tissue culture medium. The amount of formazan produced is directly proportional to the number of living cells. The ELISA assay was performed following the manufacturer's instructions. The TNF-α levels produced under each condition were normalized to the corresponding vehicle control (with or without EtOH). All the experiments were carried out with 9 replicates (for control and LPS treated cells) or 24 replicates (for cells treated with NX and/or PT). […] Using Microsoft Excel the following formula was used to calculate the p-value: =T.TEST (array1, array2, tails, type), where array1 corresponds to the TNF-α values for one treatment, array2 corresponds to TNF-α values for the co-treatment, one-tail test has been considered and type is 2 (two sample equal variance t-test). A p-value of 0.05 was used as the cutoff for significance.
# After the treatments, the supernatants were collected and an ELISA assay was performed. First, the standard curve was generated (FIG. 43).
# The TNF-α standard was measured in 8 serial 1:2 dilutions ranging from 0-4000 pg/ml. TNF-α production was measured by ELISA. Control: cells maintained in DMEM; LPS: LPS-induced cells in DMEM+0.5% EtOH+1.2% H2O; PT: cells pre-treated with 60 μg/ml of Peptylin® for 24 h; 50 NX and 100 NX: cells treated with 50 or 100 μM NX for 24 h; 50NX+PT and 100NX+PT: cells pre-treated with 50 or 100 μM NX and 60 μg/ml PT for 24 h. Then the cells were induced with 500 ng/ml LPS for 1.5 h. The data represent the mean±SD of an experiment performed in nine replicates (for Cntr and LPS) or 24 replicates (for PT and NX treatments). NS: non-significant; *** p<0.001.
# [1] = test system: Reactive Oxygen Species (ROS) within SH-SY5Y neuroblastoma cells; experiment: H2O2-induced Reactive Oxygen Species generation in SH-SY5Y cells (DCF-DA); type: cell-based, human; settings: Example 12
# Protocol: Reactive Oxygen Species (ROS) within cells can be quantified by indexing using the fluorescent probe 2′,7′-dichlorofluroescin diacetate (DCF-DA) (Sigma-Aldrich, USA). When oxidized to the reactive oxygen metabolite, the DCF-DA can be excited at 485 nm and releases fluorescence at 530 nm.
# SH-SY5Y neuroblastoma cells were incubated with 100 μl of 10% 1-BS/MEM in a 5×10^4 cells/well 96-well plate and cultured 24 hours, as in Example 1. The 10% FBS/MEM was removed and 1% FBS/MEM added to the cells. Composition A, B, C, D, or E was administered, and then DCF-DA in keeping with the DCF-DA assay described above.
# After 4 hours, a 0.25 uM solution of H2O2 (a toxicity-inducing substance) was administered. Incubation time was for 2 hours before fluorescence test. Subsequently, fluorescence was measured at 530 nm to assess the level of active oxygen production.
# In Examples 8 and 9, SH-SY5Y cells were exposed in separate, parallel models to H2O2 and FeSO4 to induce controlled cell death, but instead of analyzing cell viability in the presence of various active compounds, reactive oxygen species (ROS) generation was measured in the presence of various formulations, following peer-reviewed published methods. […]
# Reactive oxygen species generation induced by H2O2 was measured by incubation with a fluorescent probe 2′,7′-dichlorofluorescin diacetate (DCF-DA). […]
# TNF-alpha = experiment: LPS-induced TNF-alpha production in BV-2 cells; type: cell-based; settings: compared with LPS controls
Compound,"reduction in LPS-induced TNF-α production, RAW264.7 cells (TNF-α)",reduction in LPS-induced TNF-α production (TNF-α),also measured
CC/C=C\C/C=C\C/C=C\C/C=C\CCCCC(=O)OCC [SDA EE],35-71%,16-24%,–
CC/C=C\C/C=C\C/C=C\C/C=C\C/C=C\C/C=C\CCC(=O)OCC [DHA EE],21-42%,–,–
CCCCC/C=C\C/C=C\C/C=C\CCCCCCC(=O)OCC [DGLA EE],–,11-18%,–
"CC(=O)N[C@@H](CS)C(=O)O [NAC, N-Acetyl-L-cysteine]",–,–,restoration of SH-SY5Y cells (positive control group) [1]: restored to normal levels
"CC/C=C\C/C=C\C/C=C\C/C=C\C/C=C\CCCC(=O)OCC [EPA EE, eicosapentaenoic acid, ethyl ester]",32%,–,"reduction in LPS-induced TNF-alpha production, BV-2 cells (TNF-alpha; another study): 18%; reduction in LPS-induced TNF-alpha production, BV-2 cells (TNF-alpha; study in which EPA EE gave 25%): 25%; reduction in LPS-induced TNF-alpha production, BV-2 cells (TNF-alpha; third study): 27-33%"
